Test results reported in the supplement of paper PMC7840683.
Where a name gives a salt, the structure may show the parent alone. ± gives the standard deviation of the averaged measurements.

System: HepaRG
Assay: LDH release cytotoxicity, % of total lysis control; higher = more cytotoxic
Settings: 48 h
Outline: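 Duplicate wells of single-lot HepaRG cells, grown on collagen I-coated 96-well plates, received eight-point half-log series of test chemicals with 100 µM as the top concentration. Exposure lasted 48 h in serum-free induction medium with 0.5% DMSO, while total lysis wells received 0.1% Triton X. Resorufin fluorescence (CytoTox-ONE, Tecan Safire) was used to quantify LDH leaked into 50 µL of spent medium. Values for percent cytotoxicity were normalized to on-plate vehicle and total lysis controls and averaged across the duplicates.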

O=C(O)C(F)(F)C(F)(F)C(F)(F)C(F)(F)C(F)(F)C(F)(F)C(F)(F)C(F)(F)F [Perfluorononanoic acid]
Settings	LDH release cytotoxicity [%]
0.03162 µM	-0.689 ± 0.78
0.1 µM	-1.58 ± 0.88
0.3162278 µM	-1.12 ± 0.43
1 µM	-2.4 ± 0.24
3.16228 µM	-1.4 ± 0.082
10 µM	-1.71 ± 0.11
31.6228 µM	-1.31 ± 0.22
100 µM	27.5 ± 4.5

CN1CCCC1c1cccnc1 (configuration not stated) [Nicotine]
Settings	LDH release cytotoxicity [%]
0.031623 µM	0.0561 ± 0.16
0.1 µM	-2.6 ± 0.49
0.316228 µM	-2.47 ± 0.26
1 µM	-2.55 ± 0.14
3.16228 µM	-2.4 ± 0.23
10 µM	-2.95 ± 0.78
31.6228 µM	-1.31 ± 0.45
100 µM	0.154 ± 0.86

OCCOc1ccccc1 [2-Phenoxyethanol]
Settings	LDH release cytotoxicity [%]
0.03162 µM	-0.138 ± 0.14
0.1 µM	-0.772 ± 0.68
0.3162278 µM	-1.12 ± 0.39
1 µM	-1.13 ± 0.53
3.16228 µM	-1.12 ± 0.78
10 µM	-1.27 ± 0.29
31.6228 µM	-0.22 ± 0.34
100 µM	0.632 ± 1.1

O=NO [Sodium nitrite]
Settings	LDH release cytotoxicity [%]
0.03162 µM	-3.61 ± 3.5
0.1 µM	0.52 ± 1.1
0.3162278 µM	-0.867 ± 0.14
1 µM	-2.02 ± 0.5
3.16228 µM	-1.06 ± 0.48
10 µM	-0.549 ± 0.34
31.6228 µM	-1.15 ± 0.46
100 µM	0.684 ± 0.51

Clc1ccc(Cl)c(Cl)c1 [1,2,4-Trichlorobenzene]
Settings	LDH release cytotoxicity [%]
0.03162 µM	-0.83 ± 0.22
0.1 µM	-0.799 ± 0.65
0.3162278 µM	-1.05 ± 0.33
1 µM	-0.848 ± 0.19
3.16228 µM	-1.46 ± 0.75
10 µM	-0.626 ± 0.011
31.6228 µM	-0.776 ± 0.65
100 µM	-0.785 ± 0.46

COP(=O)(OC)SCn1c(=O)oc2cc(Cl)cnc21 [Azamethiphos]
Settings	LDH release cytotoxicity [%]
0.03162 µM	-1.96 ± 0.53
0.1 µM	-2.24 ± 0.48
0.3162278 µM	-2.14 ± 0.47
1 µM	-1.66 ± 0.097
3.16228 µM	-2.14 ± 0.29
10 µM	-1.74 ± 0.23
31.6228 µM	1.89 ± 0.59
100 µM	22.6 ± 3.6

CCCCCCCCOC(=O)CCCCCCCCC(=O)OCCCCCCCC [Dioctyl sebacate]
Settings	LDH release cytotoxicity [%]
0.03162 µM	-0.979 ± 0.56
0.1 µM	-1.87 ± 0.14
0.3162278 µM	-1.9 ± 0.45
1 µM	-1.13 ± 0.44
3.16228 µM	-1.59 ± 0.11
10 µM	-0.887 ± 0.82
31.6228 µM	5.14 ± 1.2
100 µM	68.74 ± 0.047

O=C(O)Cc1cc(I)c(Oc2cc(I)c(O)c(I)c2)c(I)c1 [Tetrac]
Settings	LDH release cytotoxicity [%]
0.0211873 µM	0.0963 ± 1.1
0.067 µM	-0.0291 ± 0.51
0.211873 µM	0.0359 ± 0.7
0.67 µM	0.258 ± 1.1
2.11873 µM	1.04 ± 0.39
6.7 µM	0.279 ± 0.69
21.1873 µM	-0.194 ± 0.92
67 µM	34 ± 0.74

CC(C)CC(C)(O)C#CC(C)(O)CC(C)C (configuration not stated) [2,4,7,9-Tetramethyl-5-decyne-4,7-diol]
Settings	LDH release cytotoxicity [%]
0.03162 µM	-0.689 ± 0.26
0.1 µM	-0.678 ± 0.45
0.3162278 µM	-0.883 ± 0.019
1 µM	-1.4 ± 0.25
3.16228 µM	-0.76 ± 0.5
10 µM	-0.333 ± 0.27
31.6228 µM	0.979 ± 0.2
100 µM	2.91 ± 0.27

O=C(NC(=O)c1c(F)cccc1F)Nc1ccc(OC(F)(F)C(F)OC(F)(F)F)c(Cl)c1 (configuration not stated) [Novaluron]
Settings	LDH release cytotoxicity [%]
0.031623 µM	-0.704 ± 1.1
0.1 µM	-3.48 ± 0.26
0.316228 µM	-3.95 ± 0.86
1 µM	-4.4 ± 1.3
3.16228 µM	-3.9 ± 0.22
10 µM	-4.16 ± 0.54
31.6228 µM	-1.88 ± 0.94
100 µM	4.68 ± 1.6

COc1ccc(C)cc1N [2-Methoxy-5-methylaniline]
Settings	LDH release cytotoxicity [%]
0.03162 µM	-1.46 ± 2
0.1 µM	-3.72 ± 0.18
0.3162278 µM	-3.46 ± 0.056
1 µM	-4.05 ± 0.41
3.16228 µM	-3.672 ± 0.029
10 µM	-4.54 ± 1.1
31.6228 µM	-2.55 ± 0.51
100 µM	14.6 ± 1.5

S=C(S)NCCNC(=S)S [Maneb]
Settings	LDH release cytotoxicity [%]
0.031623 µM	-0.532 ± 1.1
0.1 µM	-3.72 ± 0.66
0.316228 µM	-2.09 ± 1.5
1 µM	-4.15 ± 0.23
3.16228 µM	25.2 ± 5.5
10 µM	75.5 ± 4.6
31.6228 µM	77.2 ± 2.5
100 µM	77.7 ± 3

Cc1cc(N=Nc2ccccc2C)ccc1N [o-Aminoazotoluene]
Settings	LDH release cytotoxicity [%]
0.03162 µM	1.25 ± 0.25
0.1 µM	0.0136 ± 0.85
0.3162278 µM	-0.529 ± 0.91
1 µM	-1.5 ± 0.26
3.16228 µM	0.597 ± 1.2
10 µM	-0.361 ± 0.022
31.6228 µM	-0.392 ± 0.21
100 µM	1.11 ± 0.27

CC(C)CCCCCCCOC(=O)c1ccccc1C(=O)OCCCCCCCC(C)C
Settings	LDH release cytotoxicity [%]
0.03162 µM	-1.32 ± 0.57
0.1 µM	-1.15 ± 0.18
0.3162278 µM	-1.36 ± 0.46
1 µM	-1.26 ± 0.61
3.16228 µM	-0.979 ± 0.44
10 µM	-0.985 ± 0.6
31.6228 µM	-0.631 ± 0.57
100 µM	0.487 ± 0.66

CC(C=CC1=C(C)CCCC1(C)C)=CC=CC(C)=CCO [Retinol]
Settings	LDH release cytotoxicity [%]
0.03305 µM	-0.586 ± 0.2
0.1045 µM	-1.81 ± 0.0097
0.330458 µM	-1.85 ± 0.047
1.045 µM	-1.97 ± 0.1
3.30458 µM	-2.34 ± 0.81
10.45 µM	-1.67 ± 0.32
33.0458 µM	-1.8 ± 0.11
104.5 µM	-1.69 ± 0.67

CC(=O)c1ccccc1 [Acetophenone]
Settings	LDH release cytotoxicity [%]
0.03162 µM	-2.51 ± 1.2
0.1 µM	-2.44 ± 0.99
0.3162278 µM	-2.72 ± 0.4
1 µM	-2 ± 1.3
3.16228 µM	-2.1 ± 0.76
10 µM	-1.71 ± 1
31.6228 µM	-1.38 ± 0.1
100 µM	-0.356 ± 0.56

CC(C)(OOC(C)(C)c1ccccc1)c1ccccc1 [Dicumyl peroxide]
Settings	LDH release cytotoxicity [%]
0.03162 µM	-3.28 ± 0.56
0.1 µM	-3.3 ± 0.54
0.3162278 µM	-1.36 ± 0.58
1 µM	-1.54 ± 1
3.16228 µM	-0.973 ± 1.9
10 µM	-1.43 ± 0.79
31.6228 µM	-0.756 ± 0.26
100 µM	-0.201 ± 1.3

O=C(O)c1cccc(N(Cc2cccnc2)c2ccc(OC(F)F)c(OC(F)F)c2)c1
Settings	LDH release cytotoxicity [%]
0.03162 µM	-1.28 ± 0.33
0.1 µM	-1.45 ± 0.3
0.3162278 µM	-1.1 ± 0.23
1 µM	-1.77 ± 0.18
3.16228 µM	-1.858 ± 0.0033
10 µM	-2.03 ± 0.35
31.6228 µM	-2.58 ± 0.68
100 µM	-1.73 ± 0.97

CCN(CC)C(=O)c1cc(S(=O)(=O)Cc2ccccc2)c(N2CCC(c3ccccc3)CC2)cc1N(CC)CCN(C)C [HMR1171 trifluoroacetate (1:1)]
Settings	LDH release cytotoxicity [%]
0.01202 µM	1.63 ± 0.27
0.038 µM	0.671 ± 0.26
0.120167 µM	0.671 ± 1.3
0.38 µM	-0.413 ± 1.6
1.20167 µM	-7.42 ± 1
3.8 µM	9.34 ± 2.8
12.01666 µM	1.9 ± 0.12
38 µM	82.5 ± 8.2
